# Data published in patent publication US4257962A, “Derivatives of bicyclic lactols” (Chinoin Gyogyszer es Vegyeszeti Termekek Gyara Rt., priority 1977, dated 1981).
# Assay: Acute toxicity (LD50) in mice
# Settings: mouse, in vivo
structure (smiles),measurement,value
"CCCCCOC1C[C@@H]2[C@@H](/C=C/[C@H](O)CCCCC)[C@H](O)C[C@@H]2O1 (single isomer, unassigned; (-)) [(-)-2,3,3aβ,6aβ-Tetrahydro-2-pentyloxy-5α-hydroxy-4β-(3β-hydroxy-oct-1-trans-enyl)-cyclopentano[b]furan]",LD50,700 mg/kg
